Counter-ions that a name gives are not always drawn. Like-named read-outs stand apart in the source and are kept apart here.
How the values were obtained:
Format in all cases: cell-based
[1] = system: LNCaP prostate cancer cells; assay: SRB cell viability assay, LNCaP; conditions: Homo sapiens
Description: (§1) The effect of OSC inhibition was evaluated in additional cancer cell lines as well. Cancer cell lines may be purchased from ATCC (Manassas, Va.). The SRB assay has been employed for determination of the inhibitory effects of RO 48-8071 on growth of different cancer cells. Cells were seeded into 96-well plates and incubated overnight at 37° C. with 5% CO2. The culture medium was removed after 24 hours, and cells were washed with DMEM/F12 medium and then treated with various concentrations of RO 48-8071 in 5% FBS culture medium for 24 and 48 hours. Surviving or adherent cells were fixed in situ by withdrawing the growth medium, adding 100 μl PBS and 100 μl 50% trichloroacetic acid and then incubating at 4° C. for one hour. Cells were washed with ice-cold water, dried at room temperature (RT), and then stained with 50 μl 4% SRB for eight minutes at RT. Unbound dye was removed by washing with cold 1% acetic acid for five times, and plates were dried at RT. Bound stain was solubilized with 150 μl 10 mM Tris buffer and absorbance of samples was read at 520 nm with a SpecTRA MAX 190 microplate reader (Molecular Devices, Sunnyvale, Calif.). Six wells were used for each concentration, and each experiment was performed two to three times.
Effect of RO 48-8071 prostate cancer cell line LNCaP viability. […] The culture mediums employed 20% FBS RPMI-1640 for culture and 10% FBS RPMI-1640 for treatment.

[2] = system: Capan-1 pancreatic cancer cells; assay: SRB cell viability assay, Capan-1; conditions: Homo sapiens, Capan-1, Pancreas
Description: as §1
Effect of RO 48-8071 on pancreatic cancer cell line Capan-1 viability. […] The culture mediums employed 20% FBS IMDM for culture and 10% FBS IMDM for treatment.

LoVo colon cancer cells = assay: SRB cell viability assay, LoVo; conditions: Homo sapiens
Description: as §1
Effect of RO 48-8071 on colon cancer cell LoVo viability. […] The culture mediums employed 10% FBS F-12K for culture and 5% FBS F-12K for treatment.

[3] = system: OV-CAR-3 ovarian cancer cells; assay: SRB cell viability assay, OV-CAR-3; conditions: Homo sapiens, OVCAR-3, OV-CAR-3, Ovary
Description: as §1
Effect of RO 48-8071 on ovarian cancer cell line OVCAR-3 viability. […]

[4] = 24 hours, read-out: IC50 (μM) (24 hours)
[5] = 48 hours, read-out: IC50 (μM) (48 hours)

Work on C=CCN(C)CCCCCCOc1ccc(C(=O)c2ccc(Br)cc2)c(F)c1 [Ro 48-8071, 4′-[6-(Allylmethylamino)hexyloxy]-4-bromo-2′-fluorobenzophenone fumarate] yielded an IC50 [1, 4] of 18.1 ± 3.22 µM, an IC50 [1, 5] of 11.8 ± 0.431 µM and an IC50 [2, 4] of 18.6 ± 1.62 µM. It also gave an IC50 [2, 5] of 13.7 ± 0.168 µM, an IC50 (LoVo colon cancer cells; [4]) of 9.461 ± 0.07 µM and an IC50 (LoVo colon cancer cells; [5]) of 3.27 ± 0.541 µM. The IC50 [3, 4] was 20.5 ± 0.325 µM and the IC50 [3, 5] was 11.3 ± 0.33 µM.

Source: US10143686B2, “Oxidosqualene cyclase as a protein target for anticancer therapeutics” (The Curators of the University of Missouri, priority 2010, dated 2018)
